According to paper PMC11173846, “Comparison of HPLC, HPTLC, and In Silico Lipophilicity Parameters Determined for 5-Heterocyclic 2-(2,4-Dihydroxyphenyl)-1,3,4-thiadiazoles” (Molecules, 2024):

Assay: Chromatographic lipophilicity overall (HPTLC and HPLC systems), structure-retention comparison and PCA
Format: physicochemical
Conditions: for lipophilicity by heterocyclic substituent (chromatographic parameters, in words): Tables S1–S7, all chromatographic systems; for lipophilicity by first principal component score (average value of lipophilicity, in words): PCA of experimental and computational data, PC1
Method: Chromatographic studies were carried out using both HPTLC and HPLC methods under the isocratic conditions. In all systems, there were stated linear relationships between the RM (HPTLC) or log kw (HPLC) values and the organic modifier content (ϕ) in the mobile phase. This is described by the Soczewinski–Wachtmeister equation [31] as follows:RM = RMw + bϕ(1) log k = log kw + bϕ(2) where ϕ expresses the volume fraction of the organic solvent in the mobile phase; RMw (log kw) corresponds to 0% of the organic solvent content in the mobile phase; b represents the slope of a regression line.
The retention behavior of the compounds was analyzed by HPTLC using the octyl C8 and octadecyl C18 stationary phases and MeOH, ACN, acetone, and dioxane as organic modifiers (Supplementary Materials Tables S1–S4). The chromatographic evaluation of using the HPLC methods was made in the systems, with C8/MeOH, C8/ACN, and C18/ACN analogous to HPTLC (Tables S5 and S7). The measurements using the IAM and Chol stationary phases and the buffered mobile phases (pH = 7.4) were additionally used (Supplementary Materials Tables S5–S7).
The lipophilicity parameters for the Et derivatives were usually higher than those for chlorine ones (1 and 2; 7 and 8). This was an expected effect, taking into account the hydrophobicity parameter π (Hansch–Fujita π constant) for these substituents. Deviations from this order were sometimes observed. […] (Supplementary Materials Tables S1–S7).
To investigate the similarity between the investigated compounds, the obtained experimental and computational data were analyzed using scaled principal component analysis.
The most important conclusion from the PCA analysis is that all coefficients, both computational and experimental ones, were highly redundant. In total, 85% of the information was common for them and could be collected together to form the first principal component. The score could be interpreted as an average value of lipophilicity.

Compound	lipophilicity by heterocyclic substituent (chromatographic parameters, in words)	lipophilicity by first principal component score (average value of lipophilicity, in words)
Oc1ccc(-c2nnc(-c3ccc(N4CCOCC4)nc3)s2)c(O)c1 [Compound 13]	lowest lipophilicity	
Oc1ccc(-c2nnc(-c3ccn4c(Br)cnc4c3)s2)c(O)c1 [Compound 9]		lowest lipophilicity
Oc1cc(O)c(-c2nnc(-c3ccco3)s2)cc1Cl [Compound 1]	low lipophilicity	

Now from value to molecule:

lipophilicity by heterocyclic substituent (chromatographic parameters, in words)	lipophilicity by first principal component score (average value of lipophilicity, in words)	Compound
	highest lipophilicity	CCc1cc(-c2nnc(-c3cc4cc(Br)ccc4n3C)s2)c(O)cc1O [Compound 5]
low lipophilicity		Oc1ccc(-c2nnc(-c3ccc4nonc4c3)s2)c(O)c1 [Compound 6]
